# Results as given in US20130244255A1, “ANTIBODIES DIRECTED TO GPNMB AND USES THEREOF” (priority 2006, published 2013).
# Entries after “also recorded” stand apart in the source; their conditions may differ.
# How the values were obtained:
# [1] = test system: SK-MEL-2 human melanoma xenograft; experiment: SK-MEL-2 human melanoma xenograft in athymic mice; format: in vivo
# Protocol: Five- to 6-week old athymic mice (CD-1 nu/nu females), used for human tumor xenografts, were obtained from Harlan Laboratories (Indianapolis, Ind.). Animals were housed in specific pathogen-free conditions, according to the guidelines of the Association for Assessment and Accreditation of Laboratory Animal Care International (AAALAC International). Test animals were provided pelleted food and water ad libitum and kept in a room with conditioned ventilation (HVAC), temperature (22°±2° C.), relative humidity (55%±15%), and photoperiod (12 hr). All studies were carried out with approved institutional animal care and use protocols.
# The tumor inhibitory activity of the CR011-MMAE immunoconjugate was measured in an anti-tumor xenograft model using athymic mice, according to published methods (see Geran et al., Cancer Chemother. Rep. 3:1-104 (1972)). […] When tumors became established (10-20 days), the animals were pair-matched into groups (n=6 mice/group), and treatment was administered by intravenous injection (tail vein).
# The SK-MEL-2 human melanoma (ATCC #HTB-68) was derived from a metastatic site (skin of thigh) of a person with malignant melanoma, and the SK− MEL-5 human melanoma (ATCC #HTB-70) was derived from a metastatic site (axillary lymph node) of a person with malignant melanoma (see Fogh et al., J. Natl. Cancer Inst. 59: 221-226 (1977)). Both cell lines were obtained from the American Type Culture Collection.
# The effects of treatment were monitored by repetitive tumor measurements across 2 diameters with Vernier calipers; tumor size (in mg) was calculated using a standard formula, (W^2×L)/2, assuming a specific gravity of 1.0. Tumor size and body weights were assessed twice weekly. Mice were examined daily, however, and moribund animals were humanely euthanized if clinical indications of excessive pain or distress were noted (i.e., prostration, hunched posture, paralysis/paresis, distended abdomen, ulcerations, abscesses, seizures, and/or hemorrhages) Animals with tumors exceeding 2,000 mg were removed from the study and euthanized humanely.
# No apparent or statistically significant anti-tumor effects were observed. […] In preliminary studies, tumor regression was complete and was not followed by regrowth of the tumor despite lengthy observation periods (up to 200 days).
# SK-Mel-2 cells = experiment: Cell cycle analysis (BrdU / propidium iodide flow cytometry); format: cell-based, human
# Protocol: (§1) Briefly, cells were pulsed at the indicated times with 30 μM of bromodeoxyuridine (BrdU, Sigma) for 30 min, harvested, fixed and permeabilized in methanol. Nascent DNA synthesis was detected by anti-bromodeoxyuridine-FITC (BD Biosciences, San Jose, Calif.) staining. Total DNA content was detected using propidium iodide (PI, Sigma). For apoptosis analysis, cells were treated as above and labeled with Annexin V-FITC followed by propidium iodide exclusion using the Annexin V-FITC Apoptosis Detection kit I (BD PharMingen, San Diego, Calif.) according to the manufacturer's protocols. Flow cytometry (as described in the previous Example) was used to assay both cell cycle and apoptosis studies.
# (§2) DNA synthesis and cell cycle progression were determined by flow cytometry (Table 52).
# TK-10 control cells = experiment: as above; format: cell-based, human
# Protocol: as §1, §2
# [2] = Pharmacokinetics of CR011-vcMMAE after intravenous administration (sandwich ELISA of antibody in serum); format: in vivo, athymic mice; conditions: for A (pre-exponential constant for alpha phase) / AUC (total area under the curve from 0 to infinity) / Alpha (exponential rate constant for alpha phase) / Alpha-Half Life / B (pre-exponential constant for beta phase) / Beta (exponential rate constant for beta phase) / Beta-Half Life / Cl (total or systemic clearance) / MRT (mean residence time) / Volume (volume of central compartment) / Vss (steady-state volume of distribution): athymic mice, i.v.
# Protocol: The concentration-time pattern was bi-phasic. […] Nevertheless, the compound disappeared very slowly from the peripheral blood (T1/2β=10.3 days) with serum concentrations of […] and 10 μg/mL remaining in the blood for 6 weeks after dosing.
# HEK293 cells = experiment: Clonogenic assay, HEK293 cells transfected with GPNMB or empty vector; format: cell-based, human; conditions: 96 hours treatment
# Protocol: (§3) Cells were plated in 96-well plates and allowed to recover overnight. […] The cells were then transferred into 6-well plates and allowed to form colonies. Colonies were stained with Giemsa stain (Sigma) and counted. The surviving cell fractions were calculated based upon the ratio of the treated sample and the untreated control. The results were expressed as a percentage of control using GraphPad Prism Version 4 software.
# Immunoblot (FIG. 9A) and FACS (FIG. 9B) analyses confirmed that GPNMB was expressed in GPNMB/plasmid transfected cells.
# SNB-78 = experiment: Clonogenic assay with CR011-vcMMAE; format: cell-based, human
# Protocol: as §3
# XF-498 = experiment: Clonogenic assay with CR011-vcMMAE; format: cell-based, human
# Protocol: as §3
substance,measurement,setting,value
"CR011: fully human monoclonal antibody that specifically binds to GPNMB; VH SEQ ID NO: 20, VL SEQ ID NO: 29",tumor growth inhibition by components of the immunoconjugate (in words),[1]; doses identical to that contained in the intact immunoconjugate (5 mg/kg q4d×4),lack of responses; also recorded: lack of tumor growth inhibition
same,% G1,"SK-Mel-2 cells; SK-Mel-2, 24 hour, 1000 ng/mL",63.6%
same,% G2/M,"SK-Mel-2 cells; SK-Mel-2, 24 hour, 1000 ng/mL",6.4%
same,% S-phase,"SK-Mel-2 cells; SK-Mel-2, 24 hour, 1000 ng/mL",25.2%
same,% Sub-G1,"SK-Mel-2 cells; SK-Mel-2, 24 hour, 1000 ng/mL",0.5%
same,% G1,"TK-10 control cells; TK-10, 24 hour, 1000 ng/mL",42.0%
same,% G2/M,"TK-10 control cells; TK-10, 24 hour, 1000 ng/mL",6.3%
same,% S-phase,"TK-10 control cells; TK-10, 24 hour, 1000 ng/mL",39.8%
same,% Sub-G1,"TK-10 control cells; TK-10, 24 hour, 1000 ng/mL",0.3%
CR011-vcMMAE: CR011 conjugated to monomethyl auristatin E through a protease cleavable valine-citrulline linker; approx. 4 drugs per antibody,tumor size reached,"[1]; 1 mg/kg single bolus dose, day 58","≥ 2,000 mg"
same,tumor response (in words),[1]; 10 mg/kg single bolus dose,complete regressions
same,"earliest significant treatment effects, time after treatment commenced","[1]; CR011-vcMMAE i.v. q4d×4, P≦0.014",4 days
same,anti-tumor effect (in words),"[1]; i.v., CR011-vcMMAE 20, 10, 5 or 2.5 mg/kg q4d×4, vinblastine […] q4d×4",tumors rapidly diminished in size for the majority of the test animals
same,treatment effects on gross examination,"[1]; mouse, in vivo",no abnormal treatment effects
same,effects of treatment on body weight or weight gain,[1]; twice weekly body weight determinations,no observable or statistically significant effects
same,T1/2β,[2]; 1 or 10 mg/kg intravenously,10.3 days
same,A (pre-exponential constant for alpha phase),[2]; 1 mg/kg,8.97 µg/mL
same,AUC (total area under the curve from 0 to infinity),[2]; 1 mg/kg,3712 µg·h/mL
same,Alpha (exponential rate constant for alpha phase),[2]; 1 mg/kg,0.179 h⁻¹
same,Alpha-Half Life,[2]; 1 mg/kg,0.162 days
same,B (pre-exponential constant for beta phase),[2]; 1 mg/kg,9.82 µg/mL
same,Beta (exponential rate constant for beta phase),[2]; 1 mg/kg,0.00269 h⁻¹
same,Beta-Half Life,[2]; 1 mg/kg,10.8 days
same,Cl (total or systemic clearance),[2]; 1 mg/kg,6.46 mL/day/kg
same,MRT (mean residence time),[2]; 1 mg/kg,15.3 days
same,Volume (volume of central compartment),[2]; 1 mg/kg,0.0532 L/kg
same,Vss (steady-state volume of distribution),[2]; 1 mg/kg,0.099 L/kg
same,A (pre-exponential constant for alpha phase),[2]; 10 mg/kg,74.6 µg/mL
same,AUC (total area under the curve from 0 to infinity),[2]; 10 mg/kg,41210 µg·h/mL
same,Alpha (exponential rate constant for alpha phase),[2]; 10 mg/kg,0.0812 h⁻¹
same,Alpha-Half Life,[2]; 10 mg/kg,0.3555 days
same,B (pre-exponential constant for beta phase),[2]; 10 mg/kg,113 µg/mL
same,Beta (exponential rate constant for beta phase),[2]; 10 mg/kg,0.00281 h⁻¹
same,Beta-Half Life,[2]; 10 mg/kg,10.3 days
same,Cl (total or systemic clearance),[2]; 10 mg/kg,5.83 mL/day/kg
same,MRT (mean residence time),[2]; 10 mg/kg,14.5 days
same,Volume (volume of central compartment),[2]; 10 mg/kg,0.0532 L/kg
same,Vss (steady-state volume of distribution),[2]; 10 mg/kg,0.0845 L/kg
same,volume of distribution at steady state (Vss),[2]; in words,very low
same,decreased percentage of cells in G1 and S-phase vs untreated cells,"SK-Mel-2 cells; 1000 ng/mL, 24 hrs",10%
same,reduced percentage of cells in G1 and S-phase,"SK-Mel-2 cells; 1000 ng/mL, 48 hr",11%
same,% G1,"SK-Mel-2 cells; SK-Mel-2, 24 hour, 100 ng/mL",56.0%
same,% S-phase,"SK-Mel-2 cells; SK-Mel-2, 24 hour, 100 ng/mL",26.9%
same,% Sub-G1,"SK-Mel-2 cells; SK-Mel-2, 24 hour, 100 ng/mL",0.2%
same,% G1,"SK-Mel-2 cells; SK-Mel-2, 24 hour, 1000 ng/mL",43.7%
same,% S-phase,"SK-Mel-2 cells; SK-Mel-2, 24 hour, 1000 ng/mL",20.0%
same,effect on cycling of GPNMB-negative cells,TK-10 control cells; 1000 ng/mL,did not affect the cycling
same,% G1,"TK-10 control cells; TK-10, 24 hour, 100 ng/mL",51.1%
same,% S-phase,"TK-10 control cells; TK-10, 24 hour, 100 ng/mL",35.1%
same,% Sub-G1,"TK-10 control cells; TK-10, 24 hour, 100 ng/mL",0.7%
same,% G1,"TK-10 control cells; TK-10, 24 hour, 1000 ng/mL",52.6%
same,% S-phase,"TK-10 control cells; TK-10, 24 hour, 1000 ng/mL",34.2%
same,% Sub-G1,"TK-10 control cells; TK-10, 24 hour, 1000 ng/mL",0.8%
same,sensitivity of GPNMB-expressing HEK293 cells vs control cells to growth-inhibition,HEK293 cells,more sensitive
same,IC50,SNB-78,~0.45 µg/mL
same,IC50,XF-498,approximately 215 ng/mL
